From publication PMC5542402 (Combinatorial chemistry & high throughput screening, 2016) come the findings set out here.

A word on the Kd: it is the constant that tells how readily two partners part at equilibrium. A high value points to a looser complex.

The experiment concerns the target PhoP (Mycobacterium tuberculosis, UniProt P71814). The class given is binding.

With `[N-]=[N+]=Nc1ccc(C(=O)CSC[C@H](NC(=O)CC[C@H](N)C(=O)O)C(=O)NCC(=O)O)cc1` [NCGC00093547], the Kd came to 12.6 µM.
